In ChEMBL document CHEMBL1148138, “New eremophilenolides from Ligulariopsis shichuana” (2002):

Legend:
Bacillus subtilis = test: Antibacterial activity against Bacillus subtilis at 100 ug/mL after 24 hrs by cup-plate method; assay type: functional; details: read-out: Diameter of inhibition zone
Escherichia coli = test: Antibacterial activity against Escherichia coli at 100 ug/mL after 24 hrs by cup-plate method; assay type: functional; details: read-out: Diameter of inhibition zone

| SMILES | zone of inhibition at 100 µg/mL (Bacillus subtilis) | zone of inhibition at 100 µg/mL (Escherichia coli) |
| --- | --- | --- |
| C/C=C(/C)C(=O)O[C@@H]1[C@@]23O[C@@H]2C[C@H](OC(C)=O)[C@H](C)[C@@]3(C)CC2=C(C)C(=O)O[C@@]21O | 13 mm | 13 mm |
| CC(C)=CC(=O)O[C@H]1C[C@H]2O[C@]23C[C@@]2(O)OC(=O)C(C)=C2C[C@]3(C)[C@H]1C | 16 mm | 13 mm |
| O=C(N[C@H](CO)[C@H](O)c1ccc([N+](=O)[O-])cc1)C(Cl)Cl [CHLORAMPHENICOL] | 16 mm | 16 mm |
